Source: patent US12202818B2, “Compounds and methods for CD73 modulation and indications therefor” (Opna Bio SA, priority 2020, dated 2025)
pIC50: −log10 of the molar value.

How the values were obtained:
human CD73 = biological target: T1, human CD73 (Homo sapiens, UniProt P21589); experiment: Inhibitor activity against CD73 in cell based assay (CD73 expressing CHO-K1 cells); details: CHO-K1 cells expressing human CD73, 150 μM AMP, 4 hours of incubation; read-out: CHO-K1 CELL_VARIANT: CD73 IC50
T1 construct: expressed in transfected cells
T1 sequence (P21589 27-549): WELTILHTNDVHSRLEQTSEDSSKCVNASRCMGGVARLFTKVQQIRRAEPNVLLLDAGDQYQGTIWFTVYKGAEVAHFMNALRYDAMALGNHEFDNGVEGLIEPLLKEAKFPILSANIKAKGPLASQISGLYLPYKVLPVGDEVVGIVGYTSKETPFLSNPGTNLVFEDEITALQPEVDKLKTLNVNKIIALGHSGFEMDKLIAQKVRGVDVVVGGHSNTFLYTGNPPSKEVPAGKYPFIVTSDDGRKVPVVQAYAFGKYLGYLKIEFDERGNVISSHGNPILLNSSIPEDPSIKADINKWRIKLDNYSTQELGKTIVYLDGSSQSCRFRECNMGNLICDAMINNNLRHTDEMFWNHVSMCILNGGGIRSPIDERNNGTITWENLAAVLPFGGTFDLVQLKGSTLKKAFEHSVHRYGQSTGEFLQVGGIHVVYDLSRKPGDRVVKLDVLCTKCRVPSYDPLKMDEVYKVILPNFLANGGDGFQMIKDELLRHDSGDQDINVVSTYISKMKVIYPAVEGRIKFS
Procedure, shortened: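 AMP (150 μM) was added alongside 8 titrated compound doses (maximum 10 μM, 1:3 steps) to CHO-K1 cells stably expressing human CD73. After 4 h, supernatant AMP was measured indirectly with CellTiter-Glo 2.0 plus 1 μM ATP (30 min, RT). % inhibition versus high and low controls was fitted nonlinearly for IC50.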

[1] = biological target: T2, Human CD73 (amino acid residues 27-549) (Homo sapiens, UniProt P21589); experiment: CD73 enzymatic assay (luciferase-based indirect assay, CellTiter-Glo); type: biochemical; details: 0.4 nM CD73, 150 μM AMP, 1 hour at room temperature
T2 construct: Human CD73 (amino acid residues 27-549); His tag (N); made in house; host or cells: E. coli
T2 sequence (P21589 27-549): T1 sequence (P21589 27-549)
Procedure, shortened: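 Luciferase-coupled readout: AMP left after CD73 turnover suppresses CellTiter-Glo signal (1 μM ATP final, 30 min RT). Reaction beforehand: 150 μM AMP, 0.4 nM E. coli-made His-tagged CD73 residues 27-549, test compound, HEPES pH 7.4 with Tween-20, 1 h RT. % inhibition fitted nonlinearly for IC50.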

| pIC50 (human CD73) | pIC50 [1] | Structure (SMILES) |
| --- | --- | --- |
| 5.00 to 9.00 | 5.00 to 9.00 | O=c1[nH]ncc(N2CC[C@@H](Oc3cc(-c4ccc(S(=O)(=O)N5CCCCC5)cc4)c(Cl)cn3)C2)c1Cl [P-0249, (R)-4-chloro-5-(3-((5-chloro-4-(4-(piperidin-1-ylsulfonyl)phenyl)pyridin-2-yl)oxy)pyrrolidin-1-yl)pyridazin-3(2H)-one] |
| 5.00 to 9.00 | 5.00 to 9.00 | Cc1nn(C)c(C)c1-c1cc(O[C@@H]2CCN(c3cn[nH]c(=O)c3Cl)C2)cnn1 [P-0157, (R)-4-chloro-5-(3-((6-(1,3,5-trimethyl-1H-pyrazol-4-yl)pyridazin-4-yl)oxy)pyrrolidm-1-yl)pyridazin-3(2H)-one] |
| 5.00 to 9.00 | 5.00 to 9.00 | O=C(Nc1ccc(-c2ccnc(O[C@@H]3CCN(c4cn[nH]c(=O)c4Cl)C3)c2)c(F)c1)c1ccccc1 [P-0214, (R)-N-(4-(2-((1-(5-chloro-6-oxo-1,6-dihydropyridazin-4-yl)pyrrolidin-3-yl)oxy)pyridin-4-yl)-3-fluorophenyl)benzamide] |
| 5.00 to 9.00 | 5.00 to 9.00 | Cc1nn(C(CO)CO)c(C)c1-c1cc(O[C@H]2CN(c3cnn(CCO)c(=O)c3Cl)C[C@@H]2F)ncc1F [P-0006, 4-chloro-5-((3S,4S)-3-((4-(1-(1,3-dihydroxypropan-2-yl)-3,5-dimethyl-1H-pyrazol-4-yl)-5-fluoropyridin-2-yl)oxy)-4-fluoropyrrolidin-1-yl)-2-(2-hydroxyethyl)pyridazin-3(2H)-one] |
| 5.00 to 9.00 | 5.00 to 9.00 | Cc1nn(CC(F)(F)F)c(C)c1-c1cc(F)nc(O[C@@H]2CCN(c3cn[nH]c(=O)c3Cl)C2)c1 [P-0167, (R)-4-chloro-5-(3-((4-(3,5-dimethyl-1-(2,2,2-trifluoroethyl)-1H-pyrazol-4-yl)-6-fluoropyridin-2-yl)oxy)pyrrolidin-1-yl)pyridazin-3(2H)-one] |
